Test results from ChEMBL document CHEMBL1149465, “Identification of isoflavone derivatives as effective anticryptosporidial agents in vitro and in vivo” (J Med Chem, 2006).

Key:
[1] = test system: Cryptosporidium parvum; experiment: Antiparasitic activity against Cryptosporidium parvum in HCT8 cells; type: functional, organism-based; conditions: HCT-8
[2] = test system: Meriones unguiculatus; experiment: Reduction of oocyst in stools of Cryptosporidium parvum infected gerbils treated with 400 mg/kg at day 12; type: functional; design: scale not given: the % may be the effect or the level left
[3] = test system: Meriones unguiculatus; experiment: Reduction of oocyst in stools of Cryptosporidium parvum infected gerbils treated with 400 mg/kg at day 8; type: functional; design: scale not given: the % may be the effect or the level left
[4] = test system: Meriones unguiculatus; experiment: Deparasitization of Cryptosporidium parvum infected gerbils treated with 400 mg/kg at day 12; type: functional
[5] = test system: Plasmodium falciparum; experiment: Antiparasitic activity against Plasmodium falciparum T9-96 infected […] cells; type: functional, organism-based
[6] = test system: Trichomonas vaginalis; experiment: Antiparasitic activity against Trichomonas vaginalis in […] cells; type: functional, organism-based; conditions: UCH-1
[7] = test system: Meriones unguiculatus; experiment: Deparasitization of Cryptosporidium parvum infected gerbils treated with 400 mg/kg at day 8; type: functional
[8] = test system: Meriones unguiculatus; experiment: Reduction of oocyst in stools of Cryptosporidium parvum infected gerbils treated with 200 mg/kg at day 8; type: functional; design: scale not given: the % may be the effect or the level left
[9] = test system: Meriones unguiculatus; experiment: Deparasitization of Cryptosporidium parvum infected gerbils treated with 200 mg/kg at day 8; type: functional
[10] = test system: Meriones unguiculatus; experiment: Deparasitization of Cryptosporidium parvum infected gerbils treated with 100 mg/kg at day 8; type: functional
[11] = test system: Meriones unguiculatus; experiment: Reduction of oocyst in stools of Cryptosporidium parvum infected gerbils treated with 100 mg/kg at day 8; type: functional; design: scale not given: the % may be the effect or the level left

IC50 [1] [µM]	SMILES	also measured
70.8	O=C(Cc1ccc([N+](=O)[O-])cc1)c1c(O)cc(O)cc1O	–
0.6	CCOC(=O)c1oc2cc(O)cc(O)c2c(=O)c1-c1ccc(Br)cc1	Activity [2]: 67%; Activity [3]: 53.5%; Activity [4]: 13%
20.1	O=C(O)c1oc2cc(O)cc(O)c2c(=O)c1-c1cccc(Br)c1	–
11.7	O=C1c2c(O)cc(O)cc2OCC1c1ccc([N+](=O)[O-])cc1 (stereo not drawn)	–
1.8	O=c1c(-c2ccc([N+](=O)[O-])cc2)coc2cc(O)cc(O)c12	IC50 [5]: 20 µM; IC50 [6]: 8 µM
0.3	O=c1c(-c2cccc([N+](=O)[O-])c2)coc2cc(O)cc(O)c12	–
64.1	CCOC(=O)c1oc2cc(O)cc(O)c2c(=O)c1-c1ccc([N+](=O)[O-])cc1	–
15.9	O=C(Cc1ccc(Br)cc1)c1c(O)cc(O)cc1O	–
1.3	O=c1c(-c2ccc(Br)cc2)coc2cc(O)cc(O)c12	–
0.4	O=c1c(-c2cccc(Br)c2)coc2cc(O)cc(O)c12	–
464	O=C(Cc1cccc([N+](=O)[O-])c1)c1c(O)cc(O)cc1O	–
15.8	CCOC(=O)c1oc2cc(O)cc(O)c2c(=O)c1-c1cccc([N+](=O)[O-])c1	–
17.2	O=C(Cc1cccc(Br)c1)c1c(O)cc(O)cc1O	–
1.6	CCOC(=O)c1oc2cc(O)cc(O)c2c(=O)c1-c1cccc(Br)c1	Activity [7]: 60%; Activity [8]: 90.5%; Activity [3]: 92%; Activity [9]: 60%
–	NC[C@@H]1O[C@H](O[C@H]2[C@@H](O)[C@H](O[C@@H]3[C@@H](O)[C@H](N)C[C@H](N)[C@H]3O[C@H]3O[C@H](CO)[C@@H](O)[C@H](O)[C@H]3N)O[C@@H]2CO)[C@H](N)[C@@H](O)[C@@H]1O [PAROMOMYCIN]	Activity [10]: 14%; Activity [11]: 17.6%

SMILES	IC50 [1] [µM]	also measured
CC(=O)Oc1ccccc1C(=O)Nc1ncc([N+](=O)[O-])s1 [NITAZOXANIDE]	3.25	Activity [8]: 55%; Activity [9]: 14%
